Assay results taken from US20250326749A1, “COMPOUNDS, COMPOSITIONS, AND METHODS OF USING THEREOF” (Sionna Therapeutics Inc., priority 2022, published 2025).

What follows are molecules tested against T1, ΔF508-CFTR (Homo sapiens, UniProt P13569, DEL508-508) (assay: ΔF508-CFTR-HRP trafficking assay (cell surface expression of ΔF508-CFTR)). Conditions: CFSMEo- cells transiently transfected with ΔF508-CFTR-HRP; test agent 3 μM, 48 h; HRP chemiluminescence.
T1 construct: expressed in transfected cells; host or cells: CFSMEo- (human CF submucosal gland epithelial cells, ΔF508/Q2X), transiently transfected by nucleofection
Type: cell-based
Text: Test agents were screened for their effect on cell surface expression of ΔF508-CFTR using the ΔF508-CFTR-HRP trafficking assay. For this assay, a ΔF508-CFTR expression construct was designed with an in-frame insertion of a horseradish peroxidase (HRP) tag into the 4th extracellular loop of CFTR. The HRP tag would be presented extracellularly, in cells transiently transfected with the ΔF508-CFTR-HRP construct, following correction of the ΔF508-CFTR trafficking defect. The quantity of ΔF508-CFTR-HRP expressed on the plasma membrane could therefore be determined by measuring an HRP-dependent signal after the application of a cell-impermeable HRP substrate.
In brief, CF submucosal gland epithelial cells (CFSMEo-), derived from the airways of a CF patient (ΔF508/Q2X) and provided by Dr. Dieter Gruenert, University of California-San Francisco, were cultured at 37° C. with 5% CO2 in minimum essential medium (MEM) with Earle's salt and nonessential amino acids, supplemented with 10% (volume per volume [v/v]) fetal bovine serum, 2 mM L-glutamine and 1× (v/v) penicillin/streptomycin and grown in tissue culture-treated flasks coated with an extracellular matrix (ECM) cocktail consisting of 10 μg/mL human fibronectin, 30 μg/mL bovine collagen type I, and 100 μg/mL bovine serum albumin in LHC basal medium. These CFSMEo^− cells were transiently transfected with 4 μg of the ΔF508-CFTR-HRP expression construct using the Lonza 4D-Nucleofector Core unit (Lonza, Catalogue No. AAF-1002B) with the X unit (Lonza, Catalogue No. AAF-1002X) and SF Cell Line 4D-Nucleofector X Kit L (Lonza, Catalogue No. V4XC-2024) according to the manufacturer's instructions and plated at 1.2×10^4 cells/well onto collagen-coated, 96-well plates (Corning Inc.). Twenty-four h post-transfection, cells were treated with test agents, solubilized in DMSO at a concentration of 3 μM in replicates of 3, and allowed to incubate for 48 h. To detect HRP expression, cell culture media was removed, cells were washed with PBS and 100 μL of Luminata Forte HRP chemiluminescent substrate (EMD Millipore, Burlington, MA) was added to each well. Following a 5-minute incubation, chemiluminescence was measured in relative luminescent units (RLUs) using an EnVision plate reader (Perkin Elmer, Waltham, MA).
The ΔF508-CFTR-HRP trafficking data was normalized to the vehicle treated control (0.3% DMSO), followed by calculation of the mean, standard deviation, and standard error. If the test agent increased cell surface expression of ΔF508-CFTR-HRP relative to the vehicle-treated control, then that test agent was considered a ΔF508-CFTR corrector. Based on the description above, the biological activity of the examples in this disclosure is collected in Table 2.

T1 sequence (P13569 with tags, fused parts or gaps DEL508-508): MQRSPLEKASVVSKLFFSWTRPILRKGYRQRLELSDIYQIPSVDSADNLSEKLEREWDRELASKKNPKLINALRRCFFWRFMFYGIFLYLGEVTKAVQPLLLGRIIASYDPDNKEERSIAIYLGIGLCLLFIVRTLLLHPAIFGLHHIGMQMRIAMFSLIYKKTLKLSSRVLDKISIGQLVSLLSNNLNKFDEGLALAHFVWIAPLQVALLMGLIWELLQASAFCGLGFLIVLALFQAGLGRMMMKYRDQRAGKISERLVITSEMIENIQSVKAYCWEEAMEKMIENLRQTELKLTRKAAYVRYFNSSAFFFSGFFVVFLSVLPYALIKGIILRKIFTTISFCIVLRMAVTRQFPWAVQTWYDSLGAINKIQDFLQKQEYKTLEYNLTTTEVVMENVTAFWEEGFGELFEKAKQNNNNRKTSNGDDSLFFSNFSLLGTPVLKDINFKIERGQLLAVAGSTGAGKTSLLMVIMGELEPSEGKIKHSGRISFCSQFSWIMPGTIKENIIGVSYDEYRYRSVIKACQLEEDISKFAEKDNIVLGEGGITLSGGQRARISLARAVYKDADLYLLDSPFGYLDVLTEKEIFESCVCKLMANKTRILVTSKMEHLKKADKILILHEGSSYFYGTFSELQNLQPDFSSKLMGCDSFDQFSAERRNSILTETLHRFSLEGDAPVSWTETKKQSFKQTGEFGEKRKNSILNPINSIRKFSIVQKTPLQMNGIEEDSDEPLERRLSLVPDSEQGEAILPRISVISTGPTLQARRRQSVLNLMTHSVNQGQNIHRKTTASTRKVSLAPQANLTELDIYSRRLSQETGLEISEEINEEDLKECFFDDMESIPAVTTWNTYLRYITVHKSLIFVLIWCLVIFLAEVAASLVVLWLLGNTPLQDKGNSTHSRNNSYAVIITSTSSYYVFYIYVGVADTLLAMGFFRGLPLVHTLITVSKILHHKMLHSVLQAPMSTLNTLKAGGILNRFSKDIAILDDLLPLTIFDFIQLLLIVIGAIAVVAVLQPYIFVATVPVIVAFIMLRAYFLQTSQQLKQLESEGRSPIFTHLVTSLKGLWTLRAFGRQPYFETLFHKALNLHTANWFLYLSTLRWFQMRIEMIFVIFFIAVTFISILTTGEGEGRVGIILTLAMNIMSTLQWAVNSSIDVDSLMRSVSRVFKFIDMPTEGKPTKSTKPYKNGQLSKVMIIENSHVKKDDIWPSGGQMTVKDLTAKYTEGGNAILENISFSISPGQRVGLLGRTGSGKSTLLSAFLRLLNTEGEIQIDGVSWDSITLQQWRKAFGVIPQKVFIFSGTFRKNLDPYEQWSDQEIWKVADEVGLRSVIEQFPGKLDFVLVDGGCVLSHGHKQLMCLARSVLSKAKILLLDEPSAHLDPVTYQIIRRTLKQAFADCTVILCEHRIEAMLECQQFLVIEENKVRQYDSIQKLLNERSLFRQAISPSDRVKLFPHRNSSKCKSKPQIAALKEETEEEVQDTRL

| Compound | RLUs: ΔF508-CFTR-HRP trafficking data normalized to the vehicle treated control (0.3% DMSO) |
| --- | --- |
| C[C@H](Oc1cncc(-n2nc(C(F)(F)F)c3c2[C@H](OC24CC(C(=O)O)(C2)C4)CCC3)c1)c1cc2c(cc1F)OC(F)(F)O2 (single isomer, unassigned) [74 (P2)] | A (RLU 5.0 μM-10 μM) |
| C[C@H](Oc1cncc(-n2nc(C(F)(F)F)c3c2N(CC24CCC(C(=O)O)(CC2)CC4)CCC3)c1)c1ccc2c(c1)OC(F)(F)O2 (single isomer, unassigned) [Example 14] | A (RLU 5.0 μM-10 μM) |
| C[C@H](Nc1cc(-n2nc(C(F)(F)F)c3c2[C@H](OC24CC(c5nc(=O)o[nH]5)(C2)C4)CCC3)ccc1F)c1ccc2c(c1)OC(F)(F)O2 (single isomer, unassigned) [102 (P2)] | B (RLU 3.5 μM-5.0 μM) |
| C[C@H](Oc1cccc(-n2nc(C(F)(F)F)c3c2[C@H](O[C@H]2C[C@H](C(=O)O)C2)CCC3)n1)c1cc2c(cc1F)OC(F)(F)O2 (single isomer, unassigned) [83 (P2)] | C (RLU 0.0 μM-3.5 μM) |
| C[C@H](Oc1cc(-n2nc(C(F)(F)F)c3c2[C@@H](OC24CC(c5nc(=O)o[nH]5)(C2)C4)CCC3)ccc1F)c1cc2c(cc1F)OC(F)(F)O2 (single isomer, unassigned) [86 (P1)] | C (RLU 0.0 μM-3.5 μM) |
| C[C@H](Oc1cc(-n2nc(C(F)(F)F)c3c2[C@H](OC24CC(c5nc(=O)o[nH]5)(C2)C4)CCC3)ccc1F)c1cc2c(cc1F)OC(F)(F)O2 (single isomer, unassigned) [86 (P2)] | C (RLU 0.0 μM-3.5 μM) |
| C[C@H](Nc1nc(-n2nc(C(F)(F)F)c3c2[C@@H](OC24CC(C(=O)O)(C2)C4)CCC3)ccc1F)c1ccc2c(c1)OC(F)(F)O2 (single isomer, unassigned) [101 (P1)] | C (RLU 0.0 μM-3.5 μM) |
| C[C@H](Oc1cc(-n2nc(C(F)(F)F)c3c2N(C[C@H]2CC[C@H](C(=O)O)CC2)CCC3)ccn1)c1ccc2c(c1)OC(F)(F)O2 (single isomer, unassigned) [Example 7] | A (RLU 5.0 μM-10 μM) |
| C[C@H](Oc1cc(-n2nc(C(F)(F)F)c3c2[C@@H](Oc2ccc(C(=O)O)cc2)CCC3)ncc1F)c1ccc2c(c1)OC(F)(F)O2 (single isomer, unassigned) [Example 36i] | A (RLU 5.0 μM-10 μM) |
| CC(c1ccc2c(c1)OC(F)(F)O2)[S+]([O-])c1cccc(-n2nc(C(F)(F)F)c3c2C(Oc2ccc(C(=O)O)cc2)CCC3)c1 (stereo not shown) [Example 117, 4-[[1-[3-[1-(2,2-difluoro-1,3-benzodioxol-5-yl)ethylsulfinyl]phenyl]-3-(trifluoromethyl)-4,5,6,7-tetrahydroindazol-7-yl]oxy]benzoic acid] | C (RLU 0.0 μM-3.5 μM) |
| C[C@H](Nc1cc(-n2nc(C(F)(F)F)c3c2[C@@H](Oc2ccc(C(=O)O)cc2)CCC3)ccn1)c1ccc2c(c1)OC(F)(F)O2 (single isomer, unassigned) [Example 87] | A (RLU 5.0 μM-10 μM) |
| C[C@H](Nc1cc(-n2nc(C#N)c3c2[C@@H](OC24CC(C(=O)O)(C2)C4)CCC3)ncc1F)c1ccc2c(c1)OC(F)(F)O2 (single isomer, unassigned) [107 (P1)] | C (RLU 0.0 μM-3.5 μM) |
| C[C@H](Oc1nc(-n2nc(C(F)(F)F)c3c2[C@@H](Oc2ccc(C(=O)O)cc2)CCC3)ccc1F)c1cc2c(cc1F)OC(F)(F)O2 (single isomer, unassigned) [Example 36m] | A (RLU 5.0 μM-10 μM) |
| C[C@H](Oc1cc(-n2nc(C(F)(F)F)c3c2N(Cc2ccc(C(=O)O)cc2)CCC3)ccn1)c1ccc2c(c1)OC(F)(F)O2 [Example 8, 4-[[1-[2-[(1S)-1-(2,2-difluoro-1,3-benzodioxol-5-yl)ethoxy]-4-pyridyl]-3-(trifluoromethyl)-5,6-dihydro-4H-pyrazolo[3,4-b]pyridine-7-yl]methyl]benzoic acid] | B (RLU 3.5 μM-5.0 μM) |
| C[C@@H](Oc1cc(-n2nc(C(F)(F)F)c3c2N(CC24CC(C(=O)O)(C2)C4)CCC3)cnn1)c1cc2c(cn1)OC(F)(F)O2 (single isomer, unassigned) [Example 1] | C (RLU 0.0 μM-3.5 μM) |
| C[C@@H](Oc1cc(-n2nc(C(F)(F)F)c3c2C(Oc2ccc(C(=O)O)cc2)CCC3)ccn1)c1ccc2c(c1)OC(F)(F)O2 (stereo partly drawn) [Example 21, 4-[[1-[2-[(1R)-1-(2,2-difluoro-1,3-benzodioxol-5-yl)ethoxy]-4-pyridyl]-3-(trifluoromethyl)-4,5,6,7-tetrahydroindazol-7-yl]oxy]benzoic acid] | A (RLU 5.0 μM-10 μM) |
| C[C@H](Oc1cc(-n2nc(C(F)(F)F)c3c2[C@@H](OC24CC(C(=O)O)(C2)C4)CCC3)ccn1)c1ccc2c(c1)OC(F)(F)O2 [Example 51] | A (RLU 5.0 μM-10 μM) |
| CC(c1ccc2c(c1)OC(F)(F)O2)S(=O)(=O)c1cccc(-n2nc(C(F)(F)F)c3c2C(Oc2ccc(C(=O)O)cc2)CCC3)c1 (stereo not shown) [Example 118, 4-[[1-[3-[1-(2,2-difluoro-1,3-benzodioxol-5-yl)ethylsulfonyl]phenyl]-3-(trifluoromethyl)-4,5,6,7-tetrahydroindazol-7-yl]oxy]benzoic acid] | C (RLU 0.0 μM-3.5 μM) |
| C[C@@H](Oc1cc(-n2nc(C(F)(F)F)c3c2N(Cc2ccc(C(=O)O)cc2)CCC3)cnn1)c1ccc2c(c1)OC(F)(F)O2 (single isomer, unassigned) [Example 3] | C (RLU 0.0 μM-3.5 μM) |
| C[C@H](Oc1cc(-n2nc(C(F)(F)F)c3c2[C@H](Oc2ccc(C(=O)O)cc2)CN(C)C3)ccn1)c1ccc2c(c1)OC(F)(F)O2 (single isomer, unassigned) [115 (P2)] | C (RLU 0.0 μM-3.5 μM) |
| C[C@H](Nc1cc(-n2nc(C(F)(F)F)c3c2[C@H](OC24CC(c5nc(=O)o[nH]5)(C2)C4)CCC3)ccc1F)c1cc2c(cc1F)OC(F)(F)O2 (single isomer, unassigned) [103 (P2)] | C (RLU 0.0 μM-3.5 μM) |
| C[C@H](Oc1nc(-n2nc(C(F)(F)F)c3c2[C@@H](Oc2ccc(C(=O)O)cc2)CCC3)ccc1F)c1ccc2c(c1)OC(F)(F)O2 (single isomer, unassigned) [Example 36f] | A (RLU 5.0 μM-10 μM) |
| C[C@H](Oc1cc(-n2nc(C(F)(F)F)c3c2[C@@H](OC24CCC(C(=O)O)(CC2)CC4)CCC3)cnc1F)c1ccc2c(c1)OC(F)(F)O2 (single isomer, unassigned) [Example 59] | C (RLU 0.0 μM-3.5 μM) |
| C[C@H](Nc1ccc(F)c(-n2nc(C(F)(F)F)c3c2[C@H](OC24CC(C(=O)O)(C2)C4)CCC3)c1)c1cc2c(cc1F)OC(F)(F)O2 (single isomer, unassigned) [98 (P2)] | C (RLU 0.0 μM-3.5 μM) |
| CC(Oc1cccc(-n2nc(C(F)(F)F)c3c2N(CC24CC(C(=O)O)(C2)C4)CCC3)c1)c1ccc2c(c1)OC(F)(F)O2 (stereo not shown) [Example 10, 3-[[1-[3-[1-(2,2-difluoro-1,3-benzodioxol-5-yl)ethoxy]phenyl]-3-(trifluoromethyl)-5,6-dihydro-4H-pyrazolo[3,4-b]pyridine-7-yl]methyl]bicyclo[1.1.1]pentane-1-carboxylic acid] | B (RLU 3.5 μM-5.0 μM) |
